# From patent US20040142317A1, “Use of amino acid transporter atbo,+ as a delivery system for drugs and prodrugs” (priority 2003, published 2004)
# “And” between values parts separate entries of the source, which are not always exact repeats. Equal entries are not always repeated.
# Experiments:
# mouse ATB^0,+ [1] = molecular target: T1, mouse ATB^0,+ (Mus musculus, UniProt Q9JMA9); details: for Current in X. laevis oocytes (nA), L-isomer: L-amino acid 1 mM; for Current in X. laevis oocytes (nA), L-isomer / Current in X. laevis oocytes (nA), D-isomer: NaCl pH 7.5; for Current in X. laevis oocytes: NaCl medium pH 7.5, voltage clamp; for Current in X. laevis oocytes (nA), D-isomer: D-amino acid 1 mM
# T1 sequence (Q9JMA9 1-638): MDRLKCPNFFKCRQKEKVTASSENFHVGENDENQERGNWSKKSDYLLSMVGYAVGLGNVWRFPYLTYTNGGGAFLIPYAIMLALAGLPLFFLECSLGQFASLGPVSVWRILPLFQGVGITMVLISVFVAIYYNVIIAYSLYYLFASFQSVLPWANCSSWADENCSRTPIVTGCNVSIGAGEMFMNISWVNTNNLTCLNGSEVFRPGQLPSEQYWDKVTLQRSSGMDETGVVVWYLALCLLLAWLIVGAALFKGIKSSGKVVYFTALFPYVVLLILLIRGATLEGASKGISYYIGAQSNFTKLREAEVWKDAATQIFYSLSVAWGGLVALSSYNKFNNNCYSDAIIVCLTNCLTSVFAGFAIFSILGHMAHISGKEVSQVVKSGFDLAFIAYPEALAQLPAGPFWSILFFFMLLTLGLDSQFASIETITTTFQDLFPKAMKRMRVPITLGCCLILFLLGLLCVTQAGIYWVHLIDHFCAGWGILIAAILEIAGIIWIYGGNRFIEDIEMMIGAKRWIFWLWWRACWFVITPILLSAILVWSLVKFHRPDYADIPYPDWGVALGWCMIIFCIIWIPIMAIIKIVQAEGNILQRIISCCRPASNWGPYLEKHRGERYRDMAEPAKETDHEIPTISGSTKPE
# mouse ATB^0,+ [2] = molecular target: T1, mouse ATB^0,+; test: Inhibition of ATB0,+-specific [3H]-L-NNA transport by amino acids in HRPE cells; type: cell-based; details: amino acids 5 mM; [3H]-L-NNA 10 μM
# mouse ATB^0,+ [3] = molecular target: T1, mouse ATB^0,+
# mouse ATB^0,+ [4] = molecular target: T1, mouse ATB^0,+; test: Transport of radiolabeled substrates in HRPE cells expressing cloned mouse ATB0,+; type: cell-based; details: HRPE cells
# mouse ATB^0,+ [5] = molecular target: T1, mouse ATB^0,+; remark: listed apart in the source
structure (smiles),measurement,setting,value
N=C(N)NCCC[C@H](N)C(=O)O [Arginine],"Current in X. laevis oocytes (nA), L-isomer","mouse ATB^0,+ [1]",339 ± 35 nA
same,inward current in the absence of Cl− (sodium gluconate),"mouse ATB^0,+ [1]; compound 1 mM",No measurable current
same,inward current in the absence of Na+ (NMDG chloride),"mouse ATB^0,+ [1]; compound 1 mM",No measurable current
same,Current in X. laevis oocytes,"mouse ATB^0,+ [1]; compound 1 mM",382 ± 57 nA
same,"inhibition of ATB^0,+-specific L-NNA transport","mouse ATB^0,+ [2]",inhibition
same,activity,"mouse ATB^0,+ [3]",30%
"NC(=O)C[C@H](N)C(=O)O [Asparagine, L-Asparagine]","Current in X. laevis oocytes (nA), L-isomer","mouse ATB^0,+ [1]",394 ± 67 nA
NC(=O)NCCC[C@H](N)C(=O)O [Citrulline],Current in X. laevis oocytes,"mouse ATB^0,+ [1]; compound 1 mM",498 ± 114 nA
"C[C@@H](N)C(=O)O [D-Alanine, D-alanine]","Current in X. laevis oocytes (nA), D-isomer","mouse ATB^0,+ [1]",402 ± 39 nA
"N=C(N)NCCC[C@H](N)C(=O)O [D-Arginine, Arginine]","Current in X. laevis oocytes (nA), D-isomer","mouse ATB^0,+ [1]",6 ± 1 nA
"NC(=O)C[C@H](N)C(=O)O [D-Asparagine, Asparagine]","Current in X. laevis oocytes (nA), D-isomer","mouse ATB^0,+ [1]",3 ± 2 nA
"NC(=O)CC[C@@H](N)C(=O)O [D-Glutamine, D-glutamine]","Current in X. laevis oocytes (nA), D-isomer","mouse ATB^0,+ [1]",16 ± 11 nA
"N[C@H](Cc1c[nH]cn1)C(=O)O [D-Histidine, D-histidine]","Current in X. laevis oocytes (nA), D-isomer","mouse ATB^0,+ [1]",29 ± 6 nA
"CC[C@H](C)[C@H](N)C(=O)O [D-Isoleucine, Isoleucine]","Current in X. laevis oocytes (nA), D-isomer","mouse ATB^0,+ [1]",4 ± 4 nA
"CC(C)C[C@@H](N)C(=O)O [D-Leucine, D-leucine]","Current in X. laevis oocytes (nA), D-isomer","mouse ATB^0,+ [1]",161 ± 25 nA
"NCCCC[C@H](N)C(=O)O [D-Lysine, Lysine]","Current in X. laevis oocytes (nA), D-isomer","mouse ATB^0,+ [1]",9 ± 9 nA
"CSCC[C@@H](N)C(=O)O [D-Methionine, D-methionine]","Current in X. laevis oocytes (nA), D-isomer","mouse ATB^0,+ [1]",213 ± 15 nA
"N[C@H](Cc1ccccc1)C(=O)O [D-Phenylalanine, D-phenylalanine]","Current in X. laevis oocytes (nA), D-isomer","mouse ATB^0,+ [1]",24 ± 24 nA
"C[C@H](O)[C@@H](N)C(=O)O [D-Threonine, D-threonine]","Current in X. laevis oocytes (nA), D-isomer","mouse ATB^0,+ [1]",41 ± 5 nA
"N[C@H](Cc1c[nH]c2ccccc12)C(=O)O [D-Tryptophan, D-tryptophan]","Current in X. laevis oocytes (nA), D-isomer","mouse ATB^0,+ [1]",157 ± 23 nA
"CC(C)[C@H](N)C(=O)O [D-Valine, Valine]","Current in X. laevis oocytes (nA), D-isomer","mouse ATB^0,+ [1]",4 ± 3 nA
"NC(=O)CC[C@H](N)C(=O)O [Glutamine, L-Glutamine]","Current in X. laevis oocytes (nA), L-isomer","mouse ATB^0,+ [1]",453 ± 53 nA
NCC(=O)O [Glycine],Hill coefficient for Na+ activation of substrate transport,"mouse ATB^0,+ [4]",2.0±0.1
same,K0.5 for Cl− in substrate transport,"mouse ATB^0,+ [4]",18 ± 8 mM
same,K0.5 for Na+ in substrate transport,"mouse ATB^0,+ [4]",25 ± 1 mM
same,"Michaelis-Menten constant (Kt) of transport via mouse ATB^0,+","mouse ATB^0,+ [4]",210 ± 18 µM
same,"transport in ATB^0,+ cDNA-transfected cells compared to vector-transfected cells","mouse ATB^0,+ [4]; radiolabeled substrate",38 fold and 30 fold
same,"inhibition of ATB^0,+-specific L-NNA transport","mouse ATB^0,+ [2]",inhibition
N[C@@H](Cc1c[nH]cn1)C(=O)O [Histidine],"Current in X. laevis oocytes (nA), L-isomer","mouse ATB^0,+ [1]",410 ± 64 nA
CC[C@H](C)[C@H](N)C(=O)O [Isoleucine],"Current in X. laevis oocytes (nA), L-isomer","mouse ATB^0,+ [1]",117 ± 16 nA
N[C@@H](CC(=O)OCc1ccccc1)C(=O)O [L-Aspartate β-benzyl ester],IC50,"mouse ATB^0,+ [5]",70 ± 8 µM
same,potency relative to benzyl ester of glutamate,"mouse ATB^0,+ [5]; from IC50 values",about 2 fold
N=C(N)NOCC[C@H](N)C(=O)O [L-Canavanine],Current in X. laevis oocytes,"mouse ATB^0,+ [1]; compound 1 mM",269 ± 73 nA
same,activity,"mouse ATB^0,+ [3]",24%
same,inhibition,"mouse ATB^0,+ [3]",75%
N[C@@H](CCC(=O)OCc1ccccc1)C(=O)O [L-Glutamate γ-benzyl ester],IC50,"mouse ATB^0,+ [5]",156 ± 12 µM
